Test results taken from patent publication US10590078B2, “Sodium channel blockers” (Daewoong Pharmaceutical Co., Ltd., priority 2015, dated 2020).
pIC50: −log10 of the molar value. Like-named read-outs stand apart in the source and are kept apart here.

Target: human sodium ion channel 1.7 (hNav1.7) (Homo sapiens, UniProt Q15858)
Assay: Blocking effect against sodium ion channel Nav1.7, IonFlux16 auto patch clamp in hNav1.7 HEK293 cells
Type: cell-based
[1] = hNav1.7 HEK293 cells, inhibition of peak current after 50 seconds treatment, eight concentrations, read-out: IC50

Sequence of human sodium ion channel 1.7 (hNav1.7) (Q15858 whole entry): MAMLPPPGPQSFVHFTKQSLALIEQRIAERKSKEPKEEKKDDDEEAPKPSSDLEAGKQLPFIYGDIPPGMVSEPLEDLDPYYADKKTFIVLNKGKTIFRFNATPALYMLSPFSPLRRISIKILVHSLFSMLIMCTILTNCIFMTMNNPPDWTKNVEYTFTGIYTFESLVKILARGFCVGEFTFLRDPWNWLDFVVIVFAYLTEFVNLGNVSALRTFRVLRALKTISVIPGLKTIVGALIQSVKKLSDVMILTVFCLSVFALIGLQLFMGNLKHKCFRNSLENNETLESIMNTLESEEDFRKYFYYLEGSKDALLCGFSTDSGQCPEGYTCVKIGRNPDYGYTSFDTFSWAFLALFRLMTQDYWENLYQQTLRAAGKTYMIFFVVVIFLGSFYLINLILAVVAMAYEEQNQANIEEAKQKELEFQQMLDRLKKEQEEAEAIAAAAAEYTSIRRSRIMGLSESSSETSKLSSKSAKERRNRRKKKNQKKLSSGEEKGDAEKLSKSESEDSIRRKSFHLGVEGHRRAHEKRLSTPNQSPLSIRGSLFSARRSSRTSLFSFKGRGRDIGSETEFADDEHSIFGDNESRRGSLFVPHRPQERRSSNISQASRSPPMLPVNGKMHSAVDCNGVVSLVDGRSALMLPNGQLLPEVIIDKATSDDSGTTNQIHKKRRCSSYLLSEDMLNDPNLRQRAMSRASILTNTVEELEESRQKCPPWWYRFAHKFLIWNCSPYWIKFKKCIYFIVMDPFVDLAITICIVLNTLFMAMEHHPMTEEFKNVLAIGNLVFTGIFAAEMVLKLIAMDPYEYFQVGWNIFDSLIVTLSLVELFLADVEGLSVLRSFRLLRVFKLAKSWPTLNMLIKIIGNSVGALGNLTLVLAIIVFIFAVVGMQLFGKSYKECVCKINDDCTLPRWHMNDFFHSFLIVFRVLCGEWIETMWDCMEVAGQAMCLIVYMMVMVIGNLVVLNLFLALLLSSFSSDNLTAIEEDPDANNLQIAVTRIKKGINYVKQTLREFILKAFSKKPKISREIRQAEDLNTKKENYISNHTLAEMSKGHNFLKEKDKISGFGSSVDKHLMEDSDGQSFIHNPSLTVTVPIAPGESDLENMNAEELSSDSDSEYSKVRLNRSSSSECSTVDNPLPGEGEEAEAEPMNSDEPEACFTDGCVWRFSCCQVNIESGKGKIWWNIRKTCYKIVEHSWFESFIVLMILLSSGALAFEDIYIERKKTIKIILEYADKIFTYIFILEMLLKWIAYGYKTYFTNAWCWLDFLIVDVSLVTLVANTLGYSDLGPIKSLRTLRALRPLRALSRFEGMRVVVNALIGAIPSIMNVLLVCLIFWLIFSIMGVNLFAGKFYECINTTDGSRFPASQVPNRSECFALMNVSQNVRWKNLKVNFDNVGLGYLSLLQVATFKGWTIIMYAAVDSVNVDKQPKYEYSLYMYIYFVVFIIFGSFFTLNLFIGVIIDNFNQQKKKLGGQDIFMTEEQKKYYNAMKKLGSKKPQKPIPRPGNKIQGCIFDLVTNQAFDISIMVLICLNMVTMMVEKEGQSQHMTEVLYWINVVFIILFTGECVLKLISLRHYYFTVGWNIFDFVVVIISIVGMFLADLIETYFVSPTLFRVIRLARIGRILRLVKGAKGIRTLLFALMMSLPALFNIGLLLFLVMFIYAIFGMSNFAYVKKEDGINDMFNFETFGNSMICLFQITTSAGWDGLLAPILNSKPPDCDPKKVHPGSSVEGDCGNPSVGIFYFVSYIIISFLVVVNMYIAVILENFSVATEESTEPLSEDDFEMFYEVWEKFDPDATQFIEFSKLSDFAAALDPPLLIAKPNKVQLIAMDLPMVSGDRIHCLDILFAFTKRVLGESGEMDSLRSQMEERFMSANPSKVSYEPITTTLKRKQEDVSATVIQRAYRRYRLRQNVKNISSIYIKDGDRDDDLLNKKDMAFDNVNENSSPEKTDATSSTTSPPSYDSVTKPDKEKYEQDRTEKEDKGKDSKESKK

Work on `CC(C)COc1ccc2c(cnn2-c2cc(F)c(C(=O)NS(C)(=O)=O)cc2Cl)c1` [Example 41, 5-chloro-2-fluoro-4-(5-isobutoxy-1H-indazol-1-yl)-N-(methylsulfonyl)benzamide] yielded a pIC50 [1] of 5.20.
For `CC(C)COc1ccc2c(c1)c(Cl)nn2-c1cc(F)c(C(=O)NS(C)(=O)=O)cc1Cl` [Example 42, 5-chloro-4-(3-chloro-5-isobutoxy-1H-indazol-1-yl)-2-fluoro-N-(methylsulfonyl)benzamide], the pIC50 [1] was 6.74.
Molecule `CN(C)S(=O)(=O)NC(=O)c1cc(Cl)c(-n2nc(Cl)c3cc(OCc4ccccc4)ccc32)cc1F` [Example 43, 4-(5-(benzyloxy)-3-chloro-1H-indazol-1-yl)-5-chloro-N—(N,N-dimethylsulfamoyl)-2-fluorobenzamide] has a pIC50 [1] of 6.70.
With `CS(=O)(=O)NC(=O)c1ccc(-n2nc(Cl)c3cc(OCc4ccccc4)ccc32)c(Cl)c1` [Example 44, 4-(5-(benzyloxy)-3-chloro-1H-indazol-1-yl)-3-chloro-N-(methylsulfonyl)benzamide] the pIC50 [1] was 6.78.
With `CS(=O)(=O)NC(=O)c1cc(Cl)c(-n2nc(Cl)c3ccc(OCc4ccccc4)cc32)cc1F` [Example 45, 4-(6-(benzyloxy)-3-chloro-1H-indazol-1-yl)-5-chloro-2-fluoro-N-(methylsulfonyl)benzamide] the pIC50 [1] was 6.87.
`COC(=O)c1nn(-c2cc(F)c(C(=O)NS(C)(=O)=O)cc2Cl)c2cc(OCc3ccccc3)ccc12` [Example 46, methyl 6-(benzyloxy)-1-(2-chloro-5-fluoro-4-((methylsulfonyl)carbamoyl)phenyl)-1H-indazole-3-carboxylate] was tested, and the pIC50 [1] was under 5.00.
`CS(=O)(=O)NC(=O)c1cc(Cl)c(-n2nc(Cl)c3cc(Oc4ccc(F)nc4)ccc32)cc1F` [Example 47, 5-chloro-4-(3-chloro-5-((6-fluoropyridin-3-yl)oxy)-1H-indazol-1-yl)-2-fluoro-N-(methylsulfonyl)benzamide] showed a pIC50 [1] of 6.36.
Molecule `CS(=O)(=O)NC(=O)c1cc(Cl)c(-n2nc(-c3ccccc3)c3cc(Cl)ccc32)cc1F` [Example 48, 5-chloro-4-(5-chloro-3-phenyl-1H-indazol-1-yl)-2-fluoro-N-(methylsulfonyl)benzamide] has a pIC50 [1] of 7.32.
`CS(=O)(=O)NC(=O)c1cc(Cl)c(-n2nc(-c3ccncc3)c3cc(Cl)ccc32)cc1F` [Example 49, 5-chloro-4-(5-chloro-3-(pyridin-4-yl)-1H-indazol-1-yl)-2-fluoro-N-(methylsulfonyl)benzamide] showed a pIC50 [1] of 5.65.
`CS(=O)(=O)NC(=O)c1cc(Cl)c(-n2nc(-c3cccnc3)c3cc(Cl)ccc32)cc1F` [Example 50, 5-chloro-4-(5-chloro-3-(pyridin-3-yl)-1H-indazol-1-yl)-2-fluoro-N-(methylsulfonyl)benzamide] was tested, and the pIC50 [1] was 6.04.
`CS(=O)(=O)NC(=O)c1cc(Cl)c(-n2nc(-c3cncc(Cl)c3)c3cc(Cl)ccc32)cc1F` [Example 51, 5-chloro-4-(5-chloro-3-(5-chloropyridin-3-yl)-1H-indazol-1-yl)-2-fluoro-N-(methylsulfonyl)benzamide] gave a pIC50 [1] of 6.73.
`Cc1cccc(-c2nn(-c3cc(F)c(C(=O)NS(C)(=O)=O)cc3Cl)c3ccc(Cl)cc23)c1` [Example 52, 5-chloro-4-(5-chloro-3-(m-tolyl)-1H-indazol-1-yl)-2-fluoro-N-(methylsulfonyl)benzamide] was tested, and the pIC50 was 7.41.
`CS(=O)(=O)NC(=O)c1cc(Cl)c(-n2nc(-c3ccccc3F)c3cc(Cl)ccc32)cc1F` [Example 53, 5-chloro-4-(5-chloro-3-(2-fluorophenyl)-1H-indazol-1-yl)-2-fluoro-N-(methylsulfonyl)benzamide] was tested, and the pIC50 [1] was 7.48.
With `CS(=O)(=O)NC(=O)c1cc(Cl)c(-n2nc(-c3cccc(F)c3)c3cc(Cl)ccc32)cc1F` [Example 54, 5-chloro-4-(5-chloro-3-(3-fluorophenyl)-1H-indazol-1-yl)-2-fluoro-N-(methylsulfonyl)benzamide] the pIC50 [1] was 7.59.
